According to patent publication US20080234262A1 (Wyeth, priority 2007, published 2008):
pIC50: −log10 of the molar value.

Columns and labels:
PI3K = PI3K (Homo sapiens, UniProt P42336); assay: Fluorescence polarization assay for PI3K; type: biochemical; settings: PI3Kα; read-out: PI3Kα IC50;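 also: PI3K kinase reaction on PIP2 with ATP, 30-60 min, product sensed by GST-GRP with red probe in fluorescence polarization (mP), controls without enzyme and at zero time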
prostate line LNCap = assay: In vitro cell culture growth assay (MTS), LNCap; type: cell-based, human; settings: LNCap cells, three days after drug treatment
breast line MDA468 = assay: In vitro cell culture growth assay (MTS), MDA468; type: cell-based, human; settings: MDA468 cells, three days after drug treatment
Outline: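 Cells were plated and, one day later, exposed to inhibitors for three days; viable cell density was then measured by metabolic conversion of MTS dye, read as absorbance at 490 nm. Growth is expressed as percent of vehicle-treated control cells on the same plate.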

Sequence of PI3K (P42336 whole entry): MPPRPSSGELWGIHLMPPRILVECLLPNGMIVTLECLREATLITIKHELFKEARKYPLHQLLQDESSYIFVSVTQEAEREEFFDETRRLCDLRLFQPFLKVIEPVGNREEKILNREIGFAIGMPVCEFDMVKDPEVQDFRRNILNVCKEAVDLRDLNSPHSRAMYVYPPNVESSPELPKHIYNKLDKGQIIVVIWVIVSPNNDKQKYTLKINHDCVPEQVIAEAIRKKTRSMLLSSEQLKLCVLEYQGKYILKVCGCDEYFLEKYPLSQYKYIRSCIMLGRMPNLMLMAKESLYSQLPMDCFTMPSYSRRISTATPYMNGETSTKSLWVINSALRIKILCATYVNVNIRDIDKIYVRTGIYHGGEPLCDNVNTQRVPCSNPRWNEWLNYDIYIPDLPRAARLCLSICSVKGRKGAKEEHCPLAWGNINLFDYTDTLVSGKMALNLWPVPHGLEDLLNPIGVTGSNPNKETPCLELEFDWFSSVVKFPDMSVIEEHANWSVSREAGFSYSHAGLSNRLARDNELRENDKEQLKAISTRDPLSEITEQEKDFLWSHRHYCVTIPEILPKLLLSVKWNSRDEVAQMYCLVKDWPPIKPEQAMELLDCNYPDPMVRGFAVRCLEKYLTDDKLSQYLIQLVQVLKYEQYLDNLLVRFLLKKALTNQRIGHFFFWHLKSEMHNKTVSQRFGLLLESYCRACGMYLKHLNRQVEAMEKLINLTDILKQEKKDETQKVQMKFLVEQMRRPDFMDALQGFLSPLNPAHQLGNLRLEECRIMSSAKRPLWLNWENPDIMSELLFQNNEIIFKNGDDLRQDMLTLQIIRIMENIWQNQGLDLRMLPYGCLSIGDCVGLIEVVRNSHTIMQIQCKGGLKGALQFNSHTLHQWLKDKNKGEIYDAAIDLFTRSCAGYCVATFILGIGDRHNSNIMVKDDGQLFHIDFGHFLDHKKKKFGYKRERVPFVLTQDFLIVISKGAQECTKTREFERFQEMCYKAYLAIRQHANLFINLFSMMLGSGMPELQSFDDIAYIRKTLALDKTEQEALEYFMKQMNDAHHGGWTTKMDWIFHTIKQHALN
Sequence of PI3K (P27986 whole entry partner): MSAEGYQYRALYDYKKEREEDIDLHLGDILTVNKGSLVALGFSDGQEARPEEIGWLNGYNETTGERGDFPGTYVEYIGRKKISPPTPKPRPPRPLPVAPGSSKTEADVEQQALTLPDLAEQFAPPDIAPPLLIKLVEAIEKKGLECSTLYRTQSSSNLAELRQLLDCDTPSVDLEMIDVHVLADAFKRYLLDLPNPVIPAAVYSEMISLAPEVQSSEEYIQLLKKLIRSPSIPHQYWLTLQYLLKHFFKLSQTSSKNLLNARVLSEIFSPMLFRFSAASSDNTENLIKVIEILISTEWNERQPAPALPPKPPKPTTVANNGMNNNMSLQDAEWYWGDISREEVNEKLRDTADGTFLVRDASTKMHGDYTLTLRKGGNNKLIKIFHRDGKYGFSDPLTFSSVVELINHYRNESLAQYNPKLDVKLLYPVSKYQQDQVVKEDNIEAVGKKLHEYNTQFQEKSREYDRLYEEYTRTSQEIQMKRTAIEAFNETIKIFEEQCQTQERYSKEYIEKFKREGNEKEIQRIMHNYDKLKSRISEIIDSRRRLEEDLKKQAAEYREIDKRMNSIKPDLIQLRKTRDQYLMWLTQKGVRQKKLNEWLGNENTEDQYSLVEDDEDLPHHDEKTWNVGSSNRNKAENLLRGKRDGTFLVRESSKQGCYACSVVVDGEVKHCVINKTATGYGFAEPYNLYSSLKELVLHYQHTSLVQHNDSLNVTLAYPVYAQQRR

pIC50 (PI3K) | pIC50 (prostate line LNCap; Homo sapiens, LNCaP, 72 h) | pIC50 (prostate line LNCap) | SMILES | pIC50 (breast line MDA468; Homo sapiens, 72 h) | pIC50 (breast line MDA468)
6.79 | 6.30 | – | O=C(NCCO)Nc1ccc(-c2nc(N3CCOCC3)c3cnn(C4CCN(Cc5cccnc5)CC4)c3n2)cc1 [Compound 561, 1-(2-hydroxyethyl)-3-(4-{4-morpholin-4-yl-1-[1-(pyridin-3-ylmethyl)piperidin-4-yl]-1H-pyrazolo[3,4-d]pyrimidin-6-yl}phenyl)urea] | 6.22 | –
7.01 | 6.43 | – | C=CC(=O)N1CCC(n2ncc3c(N4CCOCC4)nc(-c4ccc(NC(=O)NC)cc4)nc32)CC1 [Compound 758, 1-{4-[1-(1-acryloylpiperidin-4-yl)-4-morpholin-4-yl-1H-pyrazolo[3,4-d]pyrimidin-6-yl]phenyl}-3-methylurea] | 6.52 | –
7.36 | 6.85 | – | CNC(=O)Nc1ccc(-c2nc(N3CCOCC3)c3cnn(C4CCOCC4)c3n2)cc1 [Compound 939, 1-methyl-3-{4-[4-morpholin-4-yl-1-(tetrahydro-2H-pyran-4-yl)-1H-pyrazolo[3,4-d]pyrimidin-6-yl]phenyl}urea] | 6.30 | –
6.13 | 6.94 | – | CCNC(=O)Nc1ccc(-c2nc(N3CCOCC3)c3cnn(C4CCN(C(=O)OC(C)(C)C)CC4)c3n2)cc1 [Compound 764, tert-butyl 4-(6-{4-[(ethylcarbamoyl)amino]phenyl}-4-morpholin-4-yl-1H-pyrazolo[3,4-d]pyrimidin-1-yl)piperidine-1-carboxylate] | 6.43 | –
7.20 | > 7.57 | – | CNC(=O)Nc1ccc(-c2nc(N3CCOCC3)c3cnn(C4CCN(C(=O)c5ccccc5)CC4)c3n2)cc1 [Compound 580, 1-{4-[1-(1-benzoylpiperidin-4-yl)-4-morpholin-4-yl-1H-pyrazolo[3,4-d]pyrimidin-6-yl]phenyl}-3-methylurea] | 7.57 | –
7.20 | 7.57 | – | CNC(=O)Nc1ccc(-c2nc(N3CCOCC3)c3cnn(C4CCN(Cc5ccco5)CC4)c3n2)cc1 [Example 402, 1-(4-{1-[1-(2-furylmethyl)piperidin-4-yl]-4-morpholin-4-yl-1H-pyrazolo[3,4-d]pyrimidin-6-yl}phenyl)-3-methylurea] | 6.30 | –
7.14 | 7.30 | – | CNC(=O)Nc1ccc(-c2nc(N3CCOCC3)c3cnn(C4CCN(C(=O)SC)CC4)c3n2)cc1 [Compound 761, S-methyl 4-(6-{4-[(methylcarbamoyl)amino]phenyl}-4-morpholin-4-yl-1H-pyrazolo[3,4-d]pyrimidin-1-yl)piperidine-1-carbothioate] | 6.92 | –
7.26 | 7.35 | – | CNC(=O)Nc1ccc(-c2nc(N3CCOCC3)c3cnn(C4CCN(C(=O)c5ccc(OC)cc5)CC4)c3n2)cc1 [Example 363, 1-(4-{1-[1-(4-methoxybenzoyl)piperidin-4-yl]-4-morpholin-4-yl-1H-pyrazolo[3,4-d]pyrimidin-6-yl}phenyl)-3-methylurea] | 6.40 | –
7.47 | > 7.57 | – | COC(=O)N1CCC(n2ncc3c(N4CCOCC4)nc(-c4ccc(NC(=O)Nc5cccnc5)cc4)nc32)CC1 [Compound 737, methyl 4-(4-morpholin-4-yl-6-{4-[(pyridin-3-ylcarbamoyl)amino]phenyl}-1H-pyrazolo[3,4-d]pyrimidin-1-yl)piperidine-1-carboxylate] | > 7.57 | –
7.12 | 6.00 | – | CNC(=O)Nc1ccc(-c2nc(N3CCOCC3)c3cnn(C4CCN(CC#N)CC4)c3n2)cc1 [Compound 793, 1-(4-{1-[1-(cyanomethyl)piperidin-4-yl]-4-morpholin-4-yl-1H-pyrazolo[3,4-d]pyrimidin-6-yl}phenyl)-3-methylurea] | 5.92 | –
8.10 | 7.51 | – | COC(=O)N1CCC(n2ncc3c(N4CCOCC4)nc(-c4ccc(NC(=O)Nc5ccc(CCNCCN(C)C)cc5)cc4)nc32)CC1 [Compound 919, methyl 4-{6-[4-({[4-(2-{[2-(dimethylamino)ethyl]amino}ethyl)phenyl]carbamoyl}amino)phenyl]-4-morpholin-4-yl-1H-pyrazolo[3,4-d]pyrimidin-1-yl}piperidine-1-carboxylate] | 6.38 | –
5.76 | 5.92 | – | O=C(NCCF)Nc1ccc(-c2nc(N3CCOCC3)c3cnn(C4CCN(C(=O)c5cccnc5)CC4)c3n2)c(F)c1 [Example 463, 1-(2-fluoroethyl)-3-(3-fluoro-4-{4-morpholin-4-yl-1-[1-(pyridin-3-ylcarbonyl)piperidin-4-yl]-1H-pyrazolo[3,4-d]pyrimidin-6-yl}phenyl)urea] | 5.92 | –
7.55 | – | 6.85 | CNC(=O)Nc1ccc(-c2nc(N3CCOCC3)c3cnn(C4CCN(Cc5cccc(O)c5)CC4)c3n2)cc1 [Compound 642, 1-(4-{1-[1-(3-hydroxybenzyl)piperidin-4-yl]-4-morpholin-4-yl-1H-pyrazolo[3,4-d]pyrimidin-6-yl}phenyl)-3-methylurea] | – | 6.38
7.27 | 7.35 | – | CNC(=O)Nc1ccc(-c2nc(N3CCOCC3)c3cnn(C4CCN(C(=O)c5ccc(OC)cc5)CC4)c3n2)cc1 [Compound 609, 1-(4-{1-[1-(4-methoxybenzoyl)piperidin-4-yl]-4-morpholin-4-yl-1H-pyrazolo[3,4-d]pyrimidin-6-yl}phenyl)-3-methylurea] | 6.46 | –
6.45 | 6.43 | – | O=C(Nc1ccc(-c2nc(N3CCOCC3)c3cnn(C4CCN(C(=O)c5cccnc5)CC4)c3n2)cc1)NC1CC1 [Example 415, 1-cyclopropyl-3-(4-{4-morpholin-4-yl-1-[1-(pyridin-3-ylcarbonyl)piperidin-4-yl]-1H-pyrazolo[3,4-d]pyrimidin-6-yl}phenyl)urea] | 6.15 | –
7.52 | 7.57 | – | CNC(=O)Nc1ccc(-c2nc(N3CCOCC3)c3cnn(C4CCN(Cc5cccc(F)c5)CC4)c3n2)cc1 [Compound 428, 1-(4-{1-[1-(3-fluorobenzyl)piperidin-4-yl]-4-morpholin-4-yl-1H-pyrazolo[3,4-d]pyrimidin-6-yl}phenyl)-3-methylurea] | 6.70 | –
6.23 | 7.70 | – | CCOC(=O)N1CCC(n2ncc3c(N4CCOC[C@H]4C)nc(-c4ccc(NC(=O)Nc5ccccc5)cc4)nc32)CC1 [Compound 891, ethyl 4-(4-[(3R)-3-methylmorpholin-4-yl]-6-{4-[(phenylcarbamoyl)amino]phenyl}-1H-pyrazolo[3,4-d]pyrimidin-1-yl)piperidine-1-carboxylate] | 6.68 | –
5.54 | 5.00 | – | c1ccc(CN2CCC(n3ncc4c(N5CCOCC5)nc(-c5cc6ccccc6s5)nc43)CC2)cc1 [Example 67] | 4.92 | –
5.15 | 5.35 | – | O=C(NCCCc1ccccc1)Nc1ccc(-c2nc(N3CCOCC3)c3cnn(C4CCN(Cc5ccccc5)CC4)c3n2)cc1 [Compound 260, 1-{4-[1-(1-benzylpiperidin-4-yl)-4-morpholin-4-yl-1H-pyrazolo[3,4-d]pyrimidin-6-yl]phenyl}-3-(3-phenylpropyl)urea] | 4.22 | –
7.34 | 5.96 | – | CNC(=O)Nc1ccc(-c2nc(N3CCOCC3)c3cnn([C@@H]4CCCNC4)c3n2)cc1 [Compound 875, 1-methyl-3-(4-{4-morpholin-4-yl-1-[(3R)-piperidin-3-yl]-1H-pyrazolo[3,4-d]pyrimidin-6-yl}phenyl)urea] | 5.90 | –
7.24 | 6.82 | – | CNC(=O)Nc1ccc(-c2nc(N3CCOCC3)c3cnn(C4CCN(Cc5ccc(OC)c(O)c5)CC4)c3n2)cc1 [Example 398, 1-(4-{1-[1-(3-hydroxy-4-methoxybenzyl)piperidin-4-yl]-4-morpholin-4-yl-1H-pyrazolo[3,4-d]pyrimidin-6-yl}phenyl)-3-methylurea] | 6.22 | –
6.77 | 4.59 | – | O=C(NCCO)Nc1ccc(-c2nc(N3CCOCC3)c3cnn(C4CCNCC4)c3n2)cc1 [Compound 775, 1-(2-hydroxyethyl)-3-[4-(4-morpholin-4-yl-1-piperidin-4-yl-1H-pyrazolo[3,4-d]pyrimidin-6-yl)phenyl]urea] | 4.92 | –
7.85 | 5.70 | – | NCCNC(=O)Nc1ccc(-c2nc(N3CCOCC3)c3cnn(C4CCN(Cc5ccccc5)CC4)c3n2)cc1 [Example 267, 1-(2-aminoethyl)-3-{4-[1-(1-benzylpiperidin-4-yl)-4-morpholin-4-yl-1H-pyrazolo[3,4-d]pyrimidin-6-yl]phenyl}urea] | 5.57 | –
6.67 | 6.60 | – | CNC(=O)Nc1ccc(-c2nc(N3CCOCC3)c3cnn(C4CCN(C(=O)c5cccnc5C)CC4)c3n2)cc1 [Example 329, 1-methyl-3-[4-(1-{1-[(2-methylpyridin-3-yl)carbonyl]piperidin-4-yl}-4-morpholin-4-yl-1H-pyrazolo[3,4-d]pyrimidin-6-yl)phenyl]urea] | 6.05 | –
7.14 | 6.89 | – | CNC(=O)Nc1ccc(-c2nc(N3CCOCC3)c3cnn(C4CCN(C(=O)OCC(C)C)CC4)c3n2)cc1 [Compound 754, isobutyl 4-(6-{4-[(methylcarbamoyl)amino]phenyl}-4-morpholin-4-yl-1H-pyrazolo[3,4-d]pyrimidin-1-yl)piperidine-1-carboxylate] | 6.57 | –
5.41 | 5.52 | – | O=C(NC1CCCC1)c1ccc(-c2nc(N3CCOCC3)c3cnn(C4CCN(Cc5ccccc5)CC4)c3n2)cc1 [Example 70] | 4.82 | –
